Source: US11339419B2, “Scavenger protein(s) for improved preservation of analyte detection sensor(s) and method(s) of use thereof” (Siemens Healthcare Diagnostics Inc., priority 2017, dated 2022)
“And” between values parts separate entries of the source, which are not always exact repeats. Identical values can stand only once.

Test system: creatininase (Toyobo)
Test: Toyobo Creatininase Enzyme Absorbance with BSA and MIT
Format: biochemical
[1] = Day 0, 5 mg/mL BSA, no MIT (row of 100 ppm MIT)
[2] = Day 0, 25 mg/mL BSA, no MIT (row of 50 ppm MIT)
[3] = Day 0, 25 mg/mL BSA, no MIT (row of 100 ppm MIT)
[4] = Day 0, 50 mg/mL BSA, no MIT (row of 50 ppm MIT)
[5] = Day 0, 50 mg/mL BSA, no MIT (row of 100 ppm MIT)
[6] = Day 0, 50 ppm MIT, 25 mg/mL BSA
[7] = Day 0, 50 ppm MIT, 50 mg/mL BSA
[8] = Day 0, 100 ppm MIT, 5 mg/mL BSA
[9] = Day 0, 100 ppm MIT, 25 mg/mL BSA
[10] = Day 0, 100 ppm MIT, 50 mg/mL BSA
[11] = Day 4, 50 ppm MIT, 25 mg/mL BSA
[12] = Day 4, 50 ppm MIT, 50 mg/mL BSA
[13] = Day 4, 100 ppm MIT, 5 mg/mL BSA
[14] = Day 4, 100 ppm MIT, 25 mg/mL BSA
[15] = Day 4, 100 ppm MIT, 50 mg/mL BSA
[16] = Day 14, 50 ppm MIT, 5 mg/mL BSA
[17] = Day 14, 50 ppm MIT, 25 mg/mL BSA
[18] = Day 14, 50 ppm MIT, 50 mg/mL BSA
[19] = Day 14, 100 ppm MIT, 5 mg/mL BSA
[20] = Day 14, 100 ppm MIT, 25 mg/mL BSA
[21] = Day 14, 100 ppm MIT, 50 mg/mL BSA

Text: Absorbance measurements of the creatininase enzyme(s) were taken via spectrophotometer for each aqueous solution (represented as columns 1-5 in Tables 5-8—column 6 is a blank), the absorbance being directly proportional to the enzyme activity being measured-which for Tables 5-8 is creatininase enzyme activity. Accordingly, the higher the absorbance measurement, the higher the enzyme activity of creatininase. Columns 7-11 represent five replicate readings in which the solution only contains BSA (i.e., there is no biocide(s) present in the solution). In addition, the mean values, standard deviations, and coefficients of variation are all presented for the enzyme activity/absorbance of each aqueous solution. All measurements were taken at 37° C.
As depicted in Table 6, creatininase (commercially offered for sale by Toyobo) enzyme activity is measured against various concentrations of MIT (biocide) and BSA (scavenger protein) over a period of 14 days (with absorbance measurement taken at 0, 4, and 14 days) for five different aqueous solutions (represented as columns 1-5—column 6 is a blank).

## bovine serum albumin [BSA]
Day 0, 5 mg/mL BSA, no MIT (row of 50 ppm MIT)
  MEAN (columns 7-11): 0.59
[1]
  Creatininase Enzyme Absorbance, columns 7-11: 0.806 and 0.802 and 0.845
  MEAN (columns 7-11): 0.61
[2]
  Creatininase Enzyme Absorbance, columns 7-11: 0.767
  MEAN (columns 7-11): 0.58
[3]
  Creatininase Enzyme Absorbance, columns 7-11: 0.751 and 0.768 and 0.799 and 0.806
  MEAN (columns 7-11): 0.57
[4]
  Creatininase Enzyme Absorbance, columns 7-11: 0.845
  MEAN (columns 7-11): 0.64
[5]
  Creatininase Enzyme Absorbance, columns 7-11: 0.735 and 0.782 and 0.778
  MEAN (columns 7-11): 0.55
Day 0, 50 ppm MIT vs no MIT, 5 mg/mL BSA
  % Bias: 6.6%
Day 0, 50 ppm MIT vs no MIT, 25 mg/mL BSA
  % Bias: 8.6%
Day 0, 50 ppm MIT vs no MIT, 50 mg/mL BSA
  % Bias: 4.9%
Day 0, 50 ppm MIT, 5 mg/mL BSA
  Creatininase Enzyme Absorbance: 0.893 and 0.808 and 0.806 and 0.812 and 0.843
  MEAN: 0.63
[6]
  Creatininase Enzyme Absorbance: 0.895 and 0.829 and 0.788 and 0.82 and 0.831
  MEAN: 0.63
[7]
  Creatininase Enzyme Absorbance: 0.905 and 0.862 and 0.847 and 0.863 and 0.895
  MEAN: 0.67
Day 0, 100 ppm MIT vs no MIT, 5 mg/mL BSA
  % Bias: 7.6%
Day 0, 100 ppm MIT vs no MIT, 25 mg/mL BSA
  % Bias: 10.4%
Day 0, 100 ppm MIT vs no MIT, 50 mg/mL BSA
  % Bias: 10.1%
[8]
  Creatininase Enzyme Absorbance: 0.922 and 0.849 and 0.843 and 0.844 and 0.859
  MEAN: 0.66
[9]
  Creatininase Enzyme Absorbance: 0.905 and 0.838 and 0.807 and 0.795 and 0.811
  MEAN: 0.63
[10]
  Creatininase Enzyme Absorbance: 0.867 and 0.794 and 0.799 and 0.792 and 0.771
  MEAN: 0.60
Day 4, 5 mg/mL BSA, no MIT (row of 50 ppm MIT)
  MEAN (columns 7-11): 0.81
Day 4, 5 mg/mL BSA, no MIT (row of 100 ppm MIT)
  MEAN (columns 7-11): 0.77
Day 4, 25 mg/mL BSA, no MIT (row of 50 ppm MIT)
  MEAN (columns 7-11): 0.64
Day 4, 25 mg/mL BSA, no MIT (row of 100 ppm MIT)
  MEAN (columns 7-11): 0.62
Day 4, 50 mg/mL BSA, no MIT (row of 50 ppm MIT)
  MEAN (columns 7-11): 0.52
Day 4, 50 mg/mL BSA, no MIT (row of 100 ppm MIT)
  MEAN (columns 7-11): 0.51
Day 4, 50 ppm MIT vs no MIT, 5 mg/mL BSA
  % Bias: −0.2%
Day 4, 50 ppm MIT vs no MIT, 25 mg/mL BSA
  % Bias: 1.5%
Day 4, 50 ppm MIT vs no MIT, 50 mg/mL BSA
  % Bias: 1.9%
Day 4, 50 ppm MIT, 5 mg/mL BSA
  Creatininase Enzyme Absorbance: 1.031 and 0.998 and 1.012 and 1.044 and 1.01
  MEAN: 0.81
[11]
  Creatininase Enzyme Absorbance: 0.867 and 0.847 and 0.853 and 0.878 and 0.873
  MEAN: 0.65
[12]
  Creatininase Enzyme Absorbance: 0.737 and 0.728 and 0.749 and 0.75 and 0.765
  MEAN: 0.53
Day 4, 100 ppm MIT vs no MIT, 5 mg/mL BSA
  % Bias: 2.2%
Day 4, 100 ppm MIT vs no MIT, 25 mg/mL BSA
  % Bias: 5.6%
Day 4, 100 ppm MIT vs no MIT, 50 mg/mL BSA
  % Bias: 7.0%
[13]
  Creatininase Enzyme Absorbance: 0.998 and 0.974 and 1.006 and 1.008 and 1.031
  MEAN: 0.79
[14]
  Creatininase Enzyme Absorbance: 0.871 and 0.863 and 0.869 and 0.86 and 0.866
  MEAN: 0.65
[15]
  Creatininase Enzyme Absorbance: 0.773 and 0.775 and 0.754 and 0.734 and 0.742
  MEAN: 0.54
Day 14, 5 mg/mL BSA, no MIT (row of 50 ppm MIT)
  MEAN (columns 7-11): 0.90
Day 14, 5 mg/mL BSA, no MIT (row of 100 ppm MIT)
  MEAN (columns 7-11): 0.87
Day 14, 25 mg/mL BSA, no MIT (row of 50 ppm MIT)
  MEAN (columns 7-11): 0.70
Day 14, 25 mg/mL BSA, no MIT (row of 100 ppm MIT)
  MEAN (columns 7-11): 0.72
Day 14, 50 mg/mL BSA, no MIT (row of 50 ppm MIT)
  MEAN (columns 7-11): 0.55
Day 14, 50 mg/mL BSA, no MIT (row of 100 ppm MIT)
  MEAN (columns 7-11): 0.56
Day 14, 50 ppm MIT vs no MIT, 5 mg/mL BSA
  % Bias: −1.7%
Day 14, 50 ppm MIT vs no MIT, 25 mg/mL BSA
  % Bias: 10.4%
Day 14, 50 ppm MIT vs no MIT, 50 mg/mL BSA
  % Bias: 3.9%
[16]
  Creatininase Enzyme Absorbance: 1.13 and 1.104 and 1.098 and 1.12 and 1.117
  MEAN: 0.88
[17]
  Creatininase Enzyme Absorbance: 1.021 and 0.986 and 0.982 and 1.025 and 0.996
  MEAN: 0.77
[18]
  Creatininase Enzyme Absorbance: 0.814 and 0.793 and 0.789 and 0.796 and 0.804
  MEAN: 0.57
Day 14, 100 ppm MIT vs no MIT, 5 mg/mL BSA
  % Bias: 4.1%
Day 14, 100 ppm MIT vs no MIT, 25 mg/mL BSA
  % Bias: 3.3%
Day 14, 100 ppm MIT vs no MIT, 50 mg/mL BSA
  % Bias: 6.0%
[19]
  Creatininase Enzyme Absorbance: 1.155 and 1.123 and 1.105 and 1.133 and 1.156
  MEAN: 0.91
[20]
  Creatininase Enzyme Absorbance: 0.997 and 0.966 and 0.95 and 0.992 and 0.976
  MEAN: 0.75
[21]
  Creatininase Enzyme Absorbance: 0.854 and 0.822 and 0.792 and 0.828 and 0.832
  MEAN: 0.60
Days 4 and 14, 5, 25 and 50 mg/mL BSA, with MIT
  absorbance of the creatininase enzyme compared to samples containing 0 mg/mL of BSA: increased absorbance
Days 4 and 14, only BSA, no MIT
  creatininase absorbance, solutions 7-11: increased (or at least maintained)
Days 4 and 14, with MIT
  BSA concentration at which the creatininase absorbance measurement is highest: 5 mg/mL
